Experimental data published in ChEMBL document CHEMBL3991601, “The target landscape of clinical kinase drugs” (Science, 2017).
The source made the active and inactive calls. Rule as the data show it, for most assays here: actives have a measured Kd and inactives only a lower limit.

Legend:
[1] = biological target: Inosine-5'-monophosphate dehydrogenase 2 (Homo sapiens, UniProt P12268)
[2] = biological target: Cyclin-dependent kinase 12 (Homo sapiens, UniProt Q9NYV4)
[3] = biological target: Casein kinase I isoform gamma-1 (Homo sapiens, UniProt Q9HCP0)
[4] = biological target: Glycogen synthase kinase-3 alpha (Homo sapiens, UniProt P49840)
Glycogen synthase kinase-3 alpha, sequence (P49840 whole entry): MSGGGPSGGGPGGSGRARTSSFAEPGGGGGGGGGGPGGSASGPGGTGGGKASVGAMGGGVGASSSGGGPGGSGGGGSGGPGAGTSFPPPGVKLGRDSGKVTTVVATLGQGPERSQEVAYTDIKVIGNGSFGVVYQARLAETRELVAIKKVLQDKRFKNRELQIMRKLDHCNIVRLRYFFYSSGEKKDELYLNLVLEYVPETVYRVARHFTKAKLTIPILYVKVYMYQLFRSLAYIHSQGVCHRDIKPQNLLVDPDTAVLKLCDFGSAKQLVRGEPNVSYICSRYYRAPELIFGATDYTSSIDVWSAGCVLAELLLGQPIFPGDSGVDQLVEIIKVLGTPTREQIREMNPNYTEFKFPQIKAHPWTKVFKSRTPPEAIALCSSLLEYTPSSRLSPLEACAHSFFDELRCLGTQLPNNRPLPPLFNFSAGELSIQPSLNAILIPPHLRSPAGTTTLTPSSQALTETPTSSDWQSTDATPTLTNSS

[5] = biological target: Ribosomal protein S6 kinase alpha-4 (Homo sapiens, UniProt O75676)
[6] = biological target: Mitogen-activated protein kinase 3 (Homo sapiens, UniProt P27361)
[7] = biological target: Cyclin-dependent kinase 13 (Homo sapiens, UniProt Q14004)
Cyclin-dependent kinase 13, sequence (Q14004 whole entry): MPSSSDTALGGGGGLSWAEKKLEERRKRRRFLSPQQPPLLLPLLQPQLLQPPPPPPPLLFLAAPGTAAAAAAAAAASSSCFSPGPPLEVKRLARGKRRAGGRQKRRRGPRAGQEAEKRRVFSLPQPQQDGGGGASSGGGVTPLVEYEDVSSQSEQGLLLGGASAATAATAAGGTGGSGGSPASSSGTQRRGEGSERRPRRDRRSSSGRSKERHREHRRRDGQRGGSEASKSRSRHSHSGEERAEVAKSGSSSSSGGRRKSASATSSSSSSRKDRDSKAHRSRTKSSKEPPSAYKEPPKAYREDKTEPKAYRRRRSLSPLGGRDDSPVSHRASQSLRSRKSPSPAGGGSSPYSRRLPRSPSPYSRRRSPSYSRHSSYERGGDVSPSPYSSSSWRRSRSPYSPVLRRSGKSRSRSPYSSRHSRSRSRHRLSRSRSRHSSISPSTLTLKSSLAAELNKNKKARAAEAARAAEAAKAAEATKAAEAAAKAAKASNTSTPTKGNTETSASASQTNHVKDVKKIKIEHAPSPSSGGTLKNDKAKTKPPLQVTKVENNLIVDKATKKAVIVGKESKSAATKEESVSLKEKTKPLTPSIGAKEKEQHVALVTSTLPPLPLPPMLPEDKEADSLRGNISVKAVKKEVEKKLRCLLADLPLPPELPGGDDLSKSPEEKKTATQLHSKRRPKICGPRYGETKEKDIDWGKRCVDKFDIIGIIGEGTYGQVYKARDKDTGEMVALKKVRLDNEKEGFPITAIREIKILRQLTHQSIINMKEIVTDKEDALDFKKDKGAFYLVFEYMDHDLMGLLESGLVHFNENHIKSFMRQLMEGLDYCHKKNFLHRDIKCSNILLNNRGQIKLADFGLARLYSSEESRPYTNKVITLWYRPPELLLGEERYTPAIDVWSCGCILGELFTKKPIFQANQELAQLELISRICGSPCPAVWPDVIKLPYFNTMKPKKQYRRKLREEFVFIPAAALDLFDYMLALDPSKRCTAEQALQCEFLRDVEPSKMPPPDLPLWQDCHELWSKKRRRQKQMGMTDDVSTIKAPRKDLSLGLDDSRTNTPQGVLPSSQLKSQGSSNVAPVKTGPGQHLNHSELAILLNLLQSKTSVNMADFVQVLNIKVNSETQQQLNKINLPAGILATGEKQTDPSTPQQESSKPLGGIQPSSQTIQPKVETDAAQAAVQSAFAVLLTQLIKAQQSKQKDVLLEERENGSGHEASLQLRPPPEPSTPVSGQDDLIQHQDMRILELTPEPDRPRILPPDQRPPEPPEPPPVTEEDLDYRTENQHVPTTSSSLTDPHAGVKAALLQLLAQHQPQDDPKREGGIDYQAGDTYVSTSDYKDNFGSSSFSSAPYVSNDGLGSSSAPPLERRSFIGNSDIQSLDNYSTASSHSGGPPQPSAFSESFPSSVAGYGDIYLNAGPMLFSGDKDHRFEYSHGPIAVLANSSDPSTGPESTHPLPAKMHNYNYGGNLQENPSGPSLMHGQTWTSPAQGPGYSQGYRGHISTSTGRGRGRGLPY

Ephrin type-A receptor 4 = Ephrin type-A receptor 4 (Homo sapiens, UniProt P54764)
[8] = biological target: cAMP-dependent protein kinase type II-alpha regulatory subunit (Homo sapiens, UniProt P13861)
LIM domain kinase 2 = LIM domain kinase 2 (Homo sapiens, UniProt P53671)
LIM domain kinase 2, sequence (P53671 whole entry, the tested form may be a part): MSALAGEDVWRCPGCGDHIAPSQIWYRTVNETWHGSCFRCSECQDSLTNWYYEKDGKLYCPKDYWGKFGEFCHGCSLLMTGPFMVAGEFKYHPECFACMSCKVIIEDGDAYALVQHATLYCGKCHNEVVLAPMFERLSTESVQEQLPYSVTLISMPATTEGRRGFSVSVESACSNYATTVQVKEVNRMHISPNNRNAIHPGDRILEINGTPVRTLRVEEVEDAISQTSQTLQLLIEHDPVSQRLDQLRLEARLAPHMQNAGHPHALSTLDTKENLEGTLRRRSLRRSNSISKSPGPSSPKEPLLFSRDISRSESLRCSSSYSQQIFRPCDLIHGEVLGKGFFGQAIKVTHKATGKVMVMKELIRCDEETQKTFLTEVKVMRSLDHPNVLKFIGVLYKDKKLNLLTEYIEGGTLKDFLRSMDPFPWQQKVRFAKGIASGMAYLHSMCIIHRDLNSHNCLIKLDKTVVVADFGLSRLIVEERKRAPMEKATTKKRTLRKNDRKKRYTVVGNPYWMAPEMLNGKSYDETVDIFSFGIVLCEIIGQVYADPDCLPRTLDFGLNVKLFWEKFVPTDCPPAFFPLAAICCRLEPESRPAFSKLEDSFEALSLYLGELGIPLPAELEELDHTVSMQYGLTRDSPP

[9] = biological target: Bone morphogenetic protein receptor type-1A (Homo sapiens, UniProt P36894)
Bone morphogenetic protein receptor type-1A, sequence (P36894 whole entry): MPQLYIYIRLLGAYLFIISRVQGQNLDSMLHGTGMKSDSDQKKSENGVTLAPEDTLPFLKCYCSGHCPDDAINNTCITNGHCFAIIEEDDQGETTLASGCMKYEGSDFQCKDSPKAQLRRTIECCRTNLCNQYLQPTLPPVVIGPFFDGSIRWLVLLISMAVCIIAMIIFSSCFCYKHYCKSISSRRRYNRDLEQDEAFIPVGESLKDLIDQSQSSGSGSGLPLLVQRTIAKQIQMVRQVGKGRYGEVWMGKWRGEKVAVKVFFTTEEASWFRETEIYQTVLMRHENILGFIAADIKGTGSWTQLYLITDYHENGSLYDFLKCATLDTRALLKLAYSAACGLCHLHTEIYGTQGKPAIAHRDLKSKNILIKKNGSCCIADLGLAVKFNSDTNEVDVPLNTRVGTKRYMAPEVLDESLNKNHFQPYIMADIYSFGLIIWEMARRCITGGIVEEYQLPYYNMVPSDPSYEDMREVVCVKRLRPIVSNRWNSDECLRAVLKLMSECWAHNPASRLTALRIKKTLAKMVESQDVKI

[10] = biological target: T1, Serine/threonine-protein kinase Chk1 (Homo sapiens, UniProt O14757)
T1 sequence (O14757 whole entry): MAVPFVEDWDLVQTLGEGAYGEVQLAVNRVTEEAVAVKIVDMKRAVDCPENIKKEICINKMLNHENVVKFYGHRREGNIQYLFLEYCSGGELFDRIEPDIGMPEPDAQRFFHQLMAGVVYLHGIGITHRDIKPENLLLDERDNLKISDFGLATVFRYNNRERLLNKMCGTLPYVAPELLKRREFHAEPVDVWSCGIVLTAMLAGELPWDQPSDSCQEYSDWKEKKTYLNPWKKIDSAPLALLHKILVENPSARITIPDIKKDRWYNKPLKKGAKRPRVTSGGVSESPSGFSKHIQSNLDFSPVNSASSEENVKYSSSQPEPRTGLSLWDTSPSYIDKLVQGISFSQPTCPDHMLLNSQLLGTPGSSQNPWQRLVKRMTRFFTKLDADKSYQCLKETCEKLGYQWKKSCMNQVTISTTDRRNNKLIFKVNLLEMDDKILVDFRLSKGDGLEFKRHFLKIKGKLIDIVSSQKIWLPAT

[11] = biological target: Tyrosine-protein kinase JAK1 (Homo sapiens, UniProt P23458)
Tyrosine-protein kinase JAK1, sequence (P23458 whole entry): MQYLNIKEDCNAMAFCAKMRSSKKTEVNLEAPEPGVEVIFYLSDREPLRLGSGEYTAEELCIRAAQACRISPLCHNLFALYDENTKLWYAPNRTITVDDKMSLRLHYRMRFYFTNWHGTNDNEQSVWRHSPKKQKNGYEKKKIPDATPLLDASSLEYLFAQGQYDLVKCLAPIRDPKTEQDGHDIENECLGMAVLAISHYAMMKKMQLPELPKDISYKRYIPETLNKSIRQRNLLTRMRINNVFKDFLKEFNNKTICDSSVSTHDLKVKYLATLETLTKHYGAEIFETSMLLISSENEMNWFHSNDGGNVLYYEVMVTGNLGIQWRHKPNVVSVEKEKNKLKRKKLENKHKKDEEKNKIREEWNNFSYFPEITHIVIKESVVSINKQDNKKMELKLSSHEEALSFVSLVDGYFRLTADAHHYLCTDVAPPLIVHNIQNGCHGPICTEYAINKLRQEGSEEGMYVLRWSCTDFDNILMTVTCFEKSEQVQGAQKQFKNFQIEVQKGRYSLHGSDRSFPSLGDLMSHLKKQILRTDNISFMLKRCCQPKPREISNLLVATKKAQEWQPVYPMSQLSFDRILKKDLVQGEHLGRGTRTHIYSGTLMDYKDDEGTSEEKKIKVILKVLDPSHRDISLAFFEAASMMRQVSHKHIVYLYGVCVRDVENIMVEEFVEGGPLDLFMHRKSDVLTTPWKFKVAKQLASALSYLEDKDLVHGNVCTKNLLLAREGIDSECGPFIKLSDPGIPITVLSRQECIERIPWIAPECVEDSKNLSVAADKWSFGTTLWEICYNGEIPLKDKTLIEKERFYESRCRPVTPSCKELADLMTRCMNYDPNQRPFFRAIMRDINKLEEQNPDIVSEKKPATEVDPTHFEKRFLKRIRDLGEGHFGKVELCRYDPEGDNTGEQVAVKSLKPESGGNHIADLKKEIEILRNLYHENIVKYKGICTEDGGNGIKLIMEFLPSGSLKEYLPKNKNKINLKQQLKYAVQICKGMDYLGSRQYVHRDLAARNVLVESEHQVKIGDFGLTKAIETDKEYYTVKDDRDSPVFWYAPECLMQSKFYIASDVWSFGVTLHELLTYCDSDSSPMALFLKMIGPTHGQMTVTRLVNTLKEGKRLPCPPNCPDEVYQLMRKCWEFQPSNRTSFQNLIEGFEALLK

[12] = biological target: Mitogen-activated protein kinase 8 (Homo sapiens, UniProt P45983)
[13] = biological target: T2, Breakpoint cluster region protein (Homo sapiens, UniProt P11274)
T2 sequence (P11274 whole entry): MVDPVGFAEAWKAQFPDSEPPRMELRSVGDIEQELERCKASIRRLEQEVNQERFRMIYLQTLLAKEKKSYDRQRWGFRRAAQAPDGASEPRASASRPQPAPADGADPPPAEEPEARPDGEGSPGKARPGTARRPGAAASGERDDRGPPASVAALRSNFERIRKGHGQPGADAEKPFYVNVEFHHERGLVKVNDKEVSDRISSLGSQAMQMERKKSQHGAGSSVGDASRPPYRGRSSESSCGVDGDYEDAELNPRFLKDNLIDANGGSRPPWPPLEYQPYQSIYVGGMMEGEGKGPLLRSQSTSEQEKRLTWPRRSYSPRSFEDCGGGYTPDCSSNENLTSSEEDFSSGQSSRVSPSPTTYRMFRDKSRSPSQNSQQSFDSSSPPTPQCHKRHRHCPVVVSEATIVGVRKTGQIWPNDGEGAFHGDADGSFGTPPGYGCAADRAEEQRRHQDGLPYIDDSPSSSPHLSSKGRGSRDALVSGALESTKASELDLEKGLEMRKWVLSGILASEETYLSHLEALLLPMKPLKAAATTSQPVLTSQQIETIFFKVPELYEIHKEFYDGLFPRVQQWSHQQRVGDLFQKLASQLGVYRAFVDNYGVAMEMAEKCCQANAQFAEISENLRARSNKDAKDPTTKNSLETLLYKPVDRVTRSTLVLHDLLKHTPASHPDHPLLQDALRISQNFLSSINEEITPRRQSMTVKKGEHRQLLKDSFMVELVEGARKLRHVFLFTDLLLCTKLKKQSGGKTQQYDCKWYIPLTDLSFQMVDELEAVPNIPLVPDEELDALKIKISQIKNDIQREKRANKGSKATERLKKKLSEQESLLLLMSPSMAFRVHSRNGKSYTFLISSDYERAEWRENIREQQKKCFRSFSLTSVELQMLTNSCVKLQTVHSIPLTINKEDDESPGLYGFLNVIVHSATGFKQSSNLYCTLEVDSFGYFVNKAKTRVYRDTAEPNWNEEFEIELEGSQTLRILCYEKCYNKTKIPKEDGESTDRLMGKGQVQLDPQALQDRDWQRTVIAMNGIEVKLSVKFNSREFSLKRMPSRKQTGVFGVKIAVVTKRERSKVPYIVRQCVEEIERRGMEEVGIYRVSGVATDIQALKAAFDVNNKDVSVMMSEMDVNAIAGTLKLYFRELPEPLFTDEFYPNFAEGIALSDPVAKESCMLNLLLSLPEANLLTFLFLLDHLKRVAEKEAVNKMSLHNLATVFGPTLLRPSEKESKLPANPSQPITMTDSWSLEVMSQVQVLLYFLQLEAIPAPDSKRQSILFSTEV

[14] = biological target: GTP-binding nuclear protein Ran (Homo sapiens, UniProt P62826)
[15] = biological target: RAC-gamma serine/threonine-protein kinase (Homo sapiens, UniProt Q9Y243)
RAC-gamma serine/threonine-protein kinase, sequence (Q9Y243 whole entry): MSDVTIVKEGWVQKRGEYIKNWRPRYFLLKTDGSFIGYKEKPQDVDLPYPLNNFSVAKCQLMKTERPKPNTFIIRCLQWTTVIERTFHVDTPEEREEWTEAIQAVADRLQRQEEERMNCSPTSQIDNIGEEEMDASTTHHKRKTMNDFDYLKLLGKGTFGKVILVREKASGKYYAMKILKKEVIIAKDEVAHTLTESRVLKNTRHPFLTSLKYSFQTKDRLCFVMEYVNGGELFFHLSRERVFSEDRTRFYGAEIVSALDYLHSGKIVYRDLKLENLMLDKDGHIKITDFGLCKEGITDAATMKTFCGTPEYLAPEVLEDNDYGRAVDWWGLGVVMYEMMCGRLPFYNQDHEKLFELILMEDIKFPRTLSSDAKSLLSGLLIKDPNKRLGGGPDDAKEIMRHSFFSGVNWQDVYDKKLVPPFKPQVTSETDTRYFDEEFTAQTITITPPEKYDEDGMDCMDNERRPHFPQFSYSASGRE
Also: in the data inactive means no Kd found up to 30 µM.

Row | SMILES | Kd [1] | Kd [2] | Kd [3] | Kd [4] | Kd [5] | Kd [6] | Kd [7] | Kd (Ephrin type-A receptor 4) | Kd [8] | Kd (LIM domain kinase 2) | Kd [9] | Kd [10] | Kd [11] | Kd [12] | Kd [13] | Kd [14] | Kd [15]
1 | Cn1ncc(Cl)c1-c1cc(C(=O)N[C@H](CN)Cc2cccc(F)c2)sc1Cl [AFURESERTIB] | > 30 µM (inactive) | > 30 µM (inactive) | > 30 µM (inactive) | > 30 µM (inactive) | > 30 µM (inactive) | > 30 µM (inactive) | > 30 µM (inactive) | > 30 µM (inactive) | > 30 µM (inactive) | > 30 µM (inactive) | > 30 µM (inactive) | > 30 µM (inactive) | > 30 µM (inactive) | > 30 µM (inactive) |  |  | 
2 | CCc1cnn2c(NCc3ccc[n+]([O-])c3)cc(N3CCCC[C@H]3CCO)nc12 [DINACICLIB] | > 30 µM (inactive) |  | > 30 µM (inactive) | 1.47 µM (active) | > 30 µM (inactive) | > 30 µM (inactive) | 0.021 µM (active) | > 30 µM (inactive) | > 30 µM (inactive) | > 30 µM (inactive) | > 30 µM (inactive) |  | > 30 µM (inactive) |  | > 30 µM (inactive) | > 30 µM (inactive) | > 30 µM (inactive)
3 | CN1CCN(c2ccc3nc(-c4c(N)c5c(F)cccc5[nH]c4=O)[nH]c3c2)CC1 [DOVITINIB] | > 30 µM (inactive) | > 30 µM (inactive) |  |  |  |  |  |  | > 30 µM (inactive) |  |  |  |  |  | 17.4 µM (active) | > 30 µM (inactive) | 
4 | COC(=O)[C@@]1(O)C[C@H]2O[C@]1(C)n1c3ccccc3c3c4c(c5c6ccccc6n2c5c31)C(=O)NC4 [K-252A] | > 30 µM (inactive) | > 30 µM (inactive) | > 30 µM (inactive) | > 30 µM (inactive) | 0.432 µM (active) | > 30 µM (inactive) | > 30 µM (inactive) | > 30 µM (inactive) | > 30 µM (inactive) | > 30 µM (inactive) | > 30 µM (inactive) | 0.122 µM (active) | > 30 µM (inactive) |  | > 30 µM (inactive) | > 30 µM (inactive) | > 30 µM (inactive)
5 | COc1cc2nccc(Oc3ccc(NC(=O)NC4CC4)c(Cl)c3)c2cc1C(N)=O [LENVATINIB] | > 30 µM (inactive) | > 30 µM (inactive) | > 30 µM (inactive) | > 30 µM (inactive) | > 30 µM (inactive) | > 30 µM (inactive) | > 30 µM (inactive) | > 30 µM (inactive) | > 30 µM (inactive) | > 30 µM (inactive) |  | > 30 µM (inactive) | > 30 µM (inactive) |  | 4.11 µM (active) | > 30 µM (inactive) | > 30 µM (inactive)
6 | Cc1cn(-c2cc(NC(=O)c3ccc(C)c(Nc4nccc(-c5cccnc5)n4)c3)cc(C(F)(F)F)c2)cn1 [NILOTINIB] | > 30 µM (inactive) | > 30 µM (inactive) |  |  |  |  |  |  | > 30 µM (inactive) |  |  |  |  |  |  | > 30 µM (inactive) | 
7 | O=C(Nc1cccc(Cl)c1)Nc1ncc(CCNc2ncnc3ccsc23)s1 [SNS-314] | > 30 µM (inactive) | > 30 µM (inactive) |  |  | > 30 µM (inactive) | > 30 µM (inactive) |  | > 30 µM (inactive) | > 30 µM (inactive) | > 30 µM (inactive) | > 30 µM (inactive) |  | > 30 µM (inactive) |  | > 30 µM (inactive) | > 30 µM (inactive) | 
8 | CN1CCC(COc2cnc(-c3cccc(Cn4nc(-c5cccc(C#N)c5)ccc4=O)c3)nc2)CC1 [TEPOTINIB] | > 30 µM (inactive) | > 30 µM (inactive) | > 30 µM (inactive) | > 30 µM (inactive) | > 30 µM (inactive) | > 30 µM (inactive) | > 30 µM (inactive) | > 30 µM (inactive) | > 30 µM (inactive) | > 30 µM (inactive) | > 30 µM (inactive) |  |  |  | > 30 µM (inactive) | > 30 µM (inactive) | > 30 µM (inactive)
9 | Nc1nc(N)c2nc(-c3cccc(O)c3)c(-c3cccc(O)c3)nc2n1 [TG100-115] | > 30 µM (inactive) | > 30 µM (inactive) |  |  |  |  |  |  | > 30 µM (inactive) |  |  |  |  |  | > 30 µM (inactive) | > 30 µM (inactive) | 

The remaining lines, values ahead:

Row | Kd [1] | Kd [2] | Kd [3] | Kd [4] | Kd [5] | Kd [6] | Kd [7] | Kd (Ephrin type-A receptor 4) | Kd [8] | Kd (LIM domain kinase 2) | Kd [9] | Kd [10] | Kd [11] | Kd [12] | Kd [13] | Kd [14] | Kd [15] | SMILES
10 |  | > 30 µM (inactive) | > 30 µM (inactive) | > 30 µM (inactive) | > 30 µM (inactive) | > 30 µM (inactive) | > 30 µM (inactive) | > 30 µM (inactive) |  | > 30 µM (inactive) | > 30 µM (inactive) | > 30 µM (inactive) | > 30 µM (inactive) | > 30 µM (inactive) | > 30 µM (inactive) | > 30 µM (inactive) |  | C[C@@H](Nc1cc(F)cc(F)c1)c1cc(C(=O)N(C)C)cc2c(=O)cc(N3CCOCC3)oc12 [AZD-8186]
11 | > 30 µM (inactive) | > 30 µM (inactive) |  |  |  | > 30 µM (inactive) |  |  |  | 2.55 µM (active) | > 30 µM (inactive) |  | 5.39 µM (active) |  | 8.09 µM (active) | > 30 µM (inactive) |  | Cc1nc(N)sc1-c1ccnc(Nc2ccc(N3CCOCC3)cc2)n1 [CYC-116]
12 | > 30 µM (inactive) | > 30 µM (inactive) |  |  | > 30 µM (inactive) | > 30 µM (inactive) | > 30 µM (inactive) | > 30 µM (inactive) | > 30 µM (inactive) |  | > 30 µM (inactive) |  | > 30 µM (inactive) |  | > 30 µM (inactive) | > 30 µM (inactive) |  | Cc1cc(Nc2cc(N3CCN(C)CC3)nc(/C=C/c3ccccc3)n2)n[nH]1 [ENMD-2076]
13 | > 30 µM (inactive) | > 30 µM (inactive) |  |  |  |  |  |  | 0.052 µM |  |  |  |  |  | > 30 µM (inactive) | > 30 µM (inactive) |  | CCn1c(-c2nonc2N)nc2c(C#CC(C)(C)O)ncc(OC[C@H]3CCCNC3)c21 [GSK-690693]
14 | > 30 µM (inactive) | > 30 µM (inactive) | > 30 µM (inactive) |  | > 30 µM (inactive) | > 30 µM (inactive) | > 30 µM (inactive) | > 30 µM (inactive) | > 30 µM (inactive) | > 30 µM (inactive) | > 30 µM (inactive) |  | > 30 µM (inactive) |  | > 30 µM (inactive) | > 30 µM (inactive) | > 30 µM (inactive) | OCCn1cc(-c2cnc3nnn(Cc4ccc5ncccc5c4)c3n2)cn1 [PF-04217903]
